Test results: patent US7589123B2, “Chemical compounds” (Phytopharm PLC, priority 2006, dated 2009)

Tests used:
[1] = system: ovalbumin-sensitised mice; assay: Ovalbumin-sensitised mice, a chronic model of asthma in vivo (Assay 8); details: mean ± s.e.mean, oral gavage 20 days: 2 3 mg/kg/day, 32 30 mg/kg/day, budesonide 1 mg/kg/day, montelukast 10 mg/kg/day; for Eosinophil infiltration / IL-4 concentration / IL-13 concentration: BAL fluid day 55; for Eosinophil infiltration: sensitised 192.1 ± 33.2; for IL-4 concentration: sensitised 231.2 ± 62.4; for IL-13 concentration: sensitised 241.9 ± 89.3; for Histopathology score: lung remodelling, day 55, sensitised 541.6 ± 36.1; for Increase in penH: methacholine challenge, day 54, sensitised 193.0 ± 61.7
Description: Mice (BALB/c from Harlan-Olac) were sensitised to ovalbumin using two interperitoneal injections of ovalbumin (10 μg) and alum (200 μl) on day 1 and 14 followed by a 20 min, daily exposure to a ovalbumin aerosol (5%) on days 19-23 and then a thrice weekly 20 min, exposure to a ovalbumin aerosol (5%) on days 24-55. […] On day 54, mice were placed in BUXCO four chamber whole body plethysmographs and breathing-associated pressure changes were recorded which were then used to calculate enhanced pause (penH), a measurement of airways resistance, in response to a methacholine challenge.
On day 55 the mice were killed and brochoalveolar lavage (BAL) fluid was collected and cytospins prepared to measure eosinophil infiltration. In addition, concentrations of interleukin-4 (IL-4) and interleukin-13 (IL-13) were measured in the BAL fluid. Furthermore, lung samples were taken, examined by a histopathologist and scored using a grading system to describe the degree of lung remodelling.

COc1cc(/C=C/C(=O)CC(=O)c2cccc(C)c2)ccc1O [Compound 104, (E)-5-(4-Hydroxy-3-methoxyphenyl)-1-m-tolylpent-4-ene-1,3-dione]
melting point: 52 °C

COc1cc(C=CC(=O)CC(=O)c2ccc(Cl)cc2)ccc1O [Compound 53, 1-(4-Chlorophenyl)-5-(4-hydroxy-3-methoxyphenyl)pent-4-ene-1,3-dione]
melting point: 57 to 63 °C

COc1cc(/C=C/C(=O)CC(=O)c2ccc(Cl)cc2C)ccc1O [Compound 96, (E)-1-(4-Chloro-2-methylphenyl)-5-(4-hydroxy-3-methoxyphenyl)pent-4-ene-1,3-dione]
melting point: 78 °C

CC(C)(O)c1ccccc1CC[C@@H](SCC1(CC(=O)O)CC1)c1cccc(/C=C/c2ccc3ccc(Cl)cc3n2)c1 [montelukast, reference compound]
Eosinophil infiltration [1]: 124.3 ± 24.8% of control | IL-4 concentration [1]: 58.2 ± 37.2% of control | IL-13 concentration [1]: 73.2 ± 55.3% of control | Histopathology score [1]: 450.0 ± 38.25% of control | Increase in penH [1]: 187.6 ± 31.9% of control

COc1cc(/C=C/C(=O)CC(=O)c2ccc3ccccc3c2)c(Cl)cc1O [Compound 105, (E)-5-(2-Chloro-4-hydroxy-5-methoxyphenyl)-1-(naphthalene-3-yl)pent-4-ene-1,3-dione]
melting point: 134 °C

COc1cc(/C=C/C(=O)CC(=O)c2ccccc2C)ccc1O [Compound 103, (E)-5-(4-Hydroxy-3-methoxyphenyl)-1-o-tolylpent-4-ene-1,3-dione]
melting point: 96 °C

COc1cc(C=CC(=O)CC(=O)c2ccc(Cl)c(Cl)c2)ccc1O [Compound 55, 1-(3,4-Dichlorophenyl)-5-(4-hydroxy-3-methoxyphenyl)pent-4-ene-1,3-dione]
melting point: 78 to 80 °C

COc1cc(/C=C/C(=O)CC(=O)c2ccccc2Cl)ccc1O [Compound 94, (E)-1-(2-Chlorophenyl)-5(4-hydroxy-3-methoxyphenyl)pent-4-ene-1,3-dione]
melting point: 89 °C

COc1cc(CCC(=O)CC(=O)c2ccccc2)ccc1OCCN.Cl
melting point: 80 °C

COc1cc(/C=C/C(=O)C(C)(C)C(=O)C(C)(C)C)ccc1O [Compound 91, (E)-1-(4-Hydroxy-3-methoxyphenyl)-4,4,6,6-tetramethylhept-1-ene-3,5-dione]
melting point: 98 to 99 °C

COc1cc(/C=C/C(=O)CC(=O)C2CC2)ccc1O [Compound 37, (E)-1-Cyclopropyl-5-(4-hydroxy-3-methoxyphenyl)-pent-4-ene-1,3-dione]
melting point: 74.5 to 79 °C

COc1cc(/C=C/C(=O)CC(=O)c2ccc(C)c(Cl)c2)ccc1O [Compound 98, (E)-1-(3-Chloro-4-methylphenyl)-5-(4-hydroxy-3-methoxyphenyl)pent-4-ene-1,3-dione]
melting point: 70 to 72 °C

CCCC1O[C@@H]2C[C@H]3[C@@H]4CCC5=CC(=O)C=C[C@]5(C)[C@H]4[C@@H](O)C[C@]3(C)[C@]2(C(=O)CO)O1 (stereo partly drawn) [budesonide, reference compound]
Eosinophil infiltration [1]: 38.4 ± 5.4% of control | IL-4 concentration [1]: 144.2 ± 59.7% of control | IL-13 concentration [1]: 199.3 ± 110.1% of control | Histopathology score [1]: 200.0 ± 27.6% of control | Increase in penH [1]: 184.6 ± 27.7% of control

COc1cc(/C=C/C(=O)CC(=O)c2ccc(C(C)(C)C)cc2)ccc1O [Compound 102, (E)-1-(4-tert-Butylphenyl)-5-(4-hydroxy-3-methoxyphenyl)pent-4-ene-1,3-dione]
melting point: 87 to 88 °C

COc1cc(/C=C/C(=O)CC(=O)c2ccc(C#N)cc2)ccc1O [Compound 101, (E)-1-(4-Cyanophenyl)-5-(4-hydroxy-3-methoxyphenyl)pent-4-ene-1,3-dione]
melting point: 128 to 130 °C

COc1cc(C=CC(=O)CC(=O)c2cccc(Cl)c2)ccc1O [Compound 54, 1-(3-Chlorophenyl)-5-(4-hydroxy-3-methoxyphenyl)pent-4-ene-1,3-dione]
melting point: 54 to 55 °C
